From patent publication US5292733A, “Cephalosporin compounds” (Lucky Limited, priority 1991, dated 1994)
Converted amounts (≈) assume the structure as drawn.

How the values were obtained:
Test in all cases: Antibacterial activity MIC, two-fold agar dilution
Type in all cases: cell-based
[1] = system: Acinetobacter calcoaceticus ATCC 15473; details: ATCC15473; Acinetobacter calcoaceticus ATCC 15473; Muller-Hinton agar, 37° C., 20 hours; read-out: Antibacterial Activity MIC
Experimental: (§1) These MIC values were taken by employing a two-fold dilution method: that is, two-fold serial dilutions of each of the test compounds were made and dispersed in a Muller-Hinton agar medium; 2 μl of the standard test strain which had the 10^7 CFU(Colony Forming Unit) per ml was inoculated on the medium; and these were incubated at 37° C. for 20 hours. The results of the MIC tests are shown Table 1.

[2] = system: Bacillus cereus ATCC 11778; details: ATCC11778; Bacillus cereus ATCC 11778; Muller-Hinton agar, 37° C., 20 hours; read-out: Antibacterial Activity MIC
Experimental: as §1

[3] = system: Bacillus megaterium ATCC 9885; details: Priestia megaterium, ATCC9885; Bacillus megaterium ATCC 9885; Muller-Hinton agar, 37° C., 20 hours; read-out: Antibacterial Activity MIC
Experimental: as §1

[4] = system: Citrobacter freundii ATCC 8090; details: ATCC8090; Citrobacter freundii ATCC 8090; Muller-Hinton agar, 37° C., 20 hours; read-out: Antibacterial Activity MIC
Experimental: as §1

[5] = system: Enterobacter aerogenes ATCC 29751; details: Klebsiella aerogenes, ATCC29751; Enterobacter aerogenes ATCC 29751; Muller-Hinton agar, 37° C., 20 hours; read-out: Antibacterial Activity MIC
Experimental: as §1

[6] = system: Enterobacter cloacae ATCC 27508; details: ATCC27508; Enterobacter cloacae ATCC 27508; Muller-Hinton agar, 37° C., 20 hours; read-out: Antibacterial Activity MIC
Experimental: as §1

[7] = system: Escherichia coli ATCC 10536; details: ATCC10536, Muller-Hinton agar, 37° C., 20 hours
Experimental: as §1

[8] = system: Escherichia coli ATCC 25922; details: ATCC25922, Muller-Hinton agar, 37° C., 20 hours
Experimental: as §1

[9] = system: Klebsiella pneumoniae ATCC 10031; details: ATCC10031; Klebsiella pneumoniae ATCC 10031; Muller-Hinton agar, 37° C., 20 hours; read-out: Antibacterial Activity MIC
Experimental: as §1

[10] = system: Micrococcus luteus ATCC 9341; details: ATCC9341; Micrococcus luteus ATCC 9341; Muller-Hinton agar, 37° C., 20 hours; read-out: Antibacterial Activity MIC
Experimental: as §1

[11] = system: Morganella morganii ATCC 8076h; details: ATCC8076H, Muller-Hinton agar, 37° C., 20 hours
Experimental: as §1

[12] = system: Proteus mirabilis ATCC 25933; details: ATCC25933; Proteus mirabilis ATCC 25933; Muller-Hinton agar, 37° C., 20 hours; read-out: Antibacterial Activity MIC
Experimental: as §1

[13] = system: Proteus vulgaris ATCC 6059; details: ATCC6059; Proteus vulgaris ATCC 6059; Muller-Hinton agar, 37° C., 20 hours; read-out: Antibacterial Activity MIC
Experimental: as §1

[14] = system: Providencia rettgeri ATCC 9250; details: ATCC9250, Muller-Hinton agar, 37° C., 20 hours
Experimental: as §1

[15] = system: Pseudomonas aeruginosa ATCC 10145; details: ATCC10145; Pseudomonas aeruginosa ATCC 10145; Muller-Hinton agar, 37° C., 20 hours; read-out: Antibacterial Activity MIC
Experimental: as §1

[16] = system: Pseudomonas aeruginosa ATCC 25619; details: ATCC25619; Pseudomonas aeruginosa ATCC 25619; Muller-Hinton agar, 37° C., 20 hours; read-out: Antibacterial Activity MIC
Experimental: as §1

[17] = system: Pseudomonas aeruginosa ATCC 27853; details: ATCC27853; Pseudomonas aeruginosa ATCC 27853; Muller-Hinton agar, 37° C., 20 hours; read-out: Antibacterial Activity MIC
Experimental: as §1

[18] = system: Salmonella typhimurium ATCC 14028; details: Salmonella enterica; Salmonella typhimurium ATCC 14028; Muller-Hinton agar, 37° C., 20 hours; read-out: Antibacterial Activity MIC
Experimental: as §1

[19] = system: Serratia marcescens ATCC 27117; details: ATCC27117; Serratia marcescens ATCC 27117; Muller-Hinton agar, 37° C., 20 hours; read-out: Antibacterial Activity MIC
Experimental: as §1

[20] = system: Shigella flexneri ATCC 11836; details: ATCC11836, Muller-Hinton agar, 37° C., 20 hours
Experimental: as §1

[21] = system: Shigella sonnei ATCC 11060; details: ATCC11060, Muller-Hinton agar, 37° C., 20 hours
Experimental: as §1

[22] = system: Staphylococcus aureus ATCC 10537; details: ATCC10537; Staphylococcus aureus ATCC 10537; Muller-Hinton agar, 37° C., 20 hours; read-out: Antibacterial Activity MIC
Experimental: as §1

[23] = system: Staphylococcus aureus ATCC 6538p; details: ATCC6538P; Staphylococcus aureus ATCC 6538p; Muller-Hinton agar, 37° C., 20 hours; read-out: Antibacterial Activity MIC
Experimental: as §1

[24] = system: Staphylococcus epidermidis ATCC 12228; details: ATCC12228; Staphylococcus epidermidis ATCC 12228; Muller-Hinton agar, 37° C., 20 hours; read-out: Antibacterial Activity MIC
Experimental: as §1

[25] = system: Streptococcus faecalis ATCC 29212; details: Enterococcus faecalis, ATCC29212; Streptococcus faecalis ATCC 29212; Muller-Hinton agar, 37° C., 20 hours; read-out: Antibacterial Activity MIC
Experimental: as §1

Row | SMILES | MIC [1] [µg/mL] | MIC [2] [µg/mL] | MIC [3] [µg/mL] | MIC [4] [µg/mL] | MIC [5] [µg/mL] | MIC [6] [µg/mL] | MIC [7] [µg/mL] | MIC [8] [µg/mL] | MIC [9] [µg/mL] | MIC [10] [µg/mL] | MIC [11] [µg/mL] | MIC [12] [µg/mL] | MIC [13] [µg/mL] | MIC [14] [µg/mL] | MIC [15] [µg/mL] | MIC [16] [µg/mL] | MIC [17] [µg/mL] | MIC [18] [µg/mL] | MIC [19] [µg/mL] | MIC [20] [µg/mL] | other results
1 | C[n+]1c(SCC2=C(C(=O)[O-])N3C(=O)[C@@H](NC(=O)/C(=N\OC(C)(C)C(=O)O)c4csc(N)n4)[C@H]3SC2)cc(N)nc1N [Compound I-1] | 4 (≈ 6.41 µM) | 128 (≈ 205 µM) | 0.25 (≈ 0.401 µM) | 0.13 (≈ 0.208 µM) | 2 (≈ 3.21 µM) | 0.016 (≈ 0.0257 µM) | 0.13 (≈ 0.208 µM) | 0.13 (≈ 0.208 µM) | 0.031 (≈ 0.0497 µM) | 0.5 (≈ 0.802 µM) | ≤ 0.008 | 0.31 (≈ 0.497 µM) | 0.31 (≈ 0.497 µM) | ≤ 0.008 | 2 (≈ 3.21 µM) | 1 (≈ 1.6 µM) | 1 (≈ 1.6 µM) | 0.5 (≈ 0.802 µM) | 0.13 (≈ 0.208 µM) | 0.031 (≈ 0.0497 µM) | MIC [21]: 0.25 µg/mL (≈ 0.401 µM); MIC [22]: 4 µg/mL (≈ 6.41 µM); MIC [23]: 8 µg/mL (≈ 12.8 µM); MIC [24]: 2 µg/mL (≈ 3.21 µM); MIC [25]: > 128 µg/mL
2 | CC[n+]1c(SCC2=C(C(=O)[O-])N3C(=O)[C@@H](NC(=O)/C(=N\OC(C)(C)C(=O)O)c4csc(N)n4)[C@H]3SC2)cc(N)nc1N [Compound I-2, (6R,7R)-7-[(Z)-2-(2-aminothiazol-4-yl)-2-(carboxyprop-2-oxyimino)acetamido]-3-(2,6-diamino-3-ethylpyrimidinium-4-yl)thiomethyl-3-cephem-4-carboxylate] | 4 (≈ 6.27 µM) | 64 (≈ 100 µM) | 0.25 (≈ 0.392 µM) | 0.13 (≈ 0.204 µM) | 1 (≈ 1.57 µM) | 0.016 (≈ 0.0251 µM) | 0.063 (≈ 0.0988 µM) | 0.063 (≈ 0.0988 µM) | 0.031 (≈ 0.0486 µM) | 0.5 (≈ 0.784 µM) | ≤ 0.008 | 0.31 (≈ 0.486 µM) | 0.13 (≈ 0.204 µM) | ≤ 0.008 | 1 (≈ 1.57 µM) | 1 (≈ 1.57 µM) | 1 (≈ 1.57 µM) | 0.5 (≈ 0.784 µM) | 0.13 (≈ 0.204 µM) | 0.031 (≈ 0.0486 µM) | MIC [21]: 0.25 µg/mL (≈ 0.392 µM); MIC [22]: 4 µg/mL (≈ 6.27 µM); MIC [23]: 4 µg/mL (≈ 6.27 µM); MIC [24]: 1 µg/mL (≈ 1.57 µM); MIC [25]: > 128 µg/mL
3 | CC(O/N=C(\C(=O)N[C@@H]1C(=O)N2C(C(=O)[O-])=C(CSc3cc(N)nc(N)[n+]3C)CS[C@H]12)c1csc(N)n1)C(=O)O (stereo partly drawn) [Compound I-3, (6R,7R)-7-[(Z)-2-(2-aminothiazol-4-yl)-2-(R,S-carboxyeth-1-oxyimino)acetamido]-3-(2,6-diamino-3-methylpyrimidinium-4-yl)thiomethyl-3-cephem-4-carboxylate] | 2 (≈ 3.28 µM) | 64 (≈ 105 µM) | 0.25 (≈ 0.41 µM) | 0.13 (≈ 0.213 µM) | 2 (≈ 3.28 µM) | 0.016 (≈ 0.0262 µM) | 0.13 (≈ 0.213 µM) | 0.13 (≈ 0.213 µM) | 0.031 (≈ 0.0508 µM) | 0.5 (≈ 0.82 µM) | ≤ 0.008 | 0.31 (≈ 0.508 µM) | 0.063 (≈ 0.103 µM) | ≤ 0.008 | 1 (≈ 1.64 µM) | 1 (≈ 1.64 µM) | 1 (≈ 1.64 µM) | 0.5 (≈ 0.82 µM) | 0.13 (≈ 0.213 µM) | 0.031 (≈ 0.0508 µM) | MIC [21]: 0.25 µg/mL (≈ 0.41 µM); MIC [22]: 4 µg/mL (≈ 6.56 µM); MIC [23]: 4 µg/mL (≈ 6.56 µM); MIC [24]: 2 µg/mL (≈ 3.28 µM); MIC [25]: > 128 µg/mL
